Tests used:
Type in all cases: cell-based
BaF3_HER2YVMA cells = BaF3_HER2YVMA cells (Homo sapiens, UniProt P04626, DUP772-775, cells depend on it); test: Cell growth inhibition assay (CellTiterGlo), BaF3_HER2YVMA; details: cell growth inhibition, 3 days treatment, read-out: HER2 - YVMA IC50
BaF3_HER2WT cells = BaF3_HER2WT cells (Homo sapiens, UniProt P04626); test: Cell growth inhibition assay (CellTiterGlo), BaF3_HER2WT; details: cell growth inhibition, 3 days treatment, read-out: HER2 WT IC50
BaF3_EGFRWT cells = BaF3_EGFRWT cells (Homo sapiens, UniProt P00533); test: Cell growth inhibition assay (CellTiterGlo), BaF3_EGFRWT; details: cell growth inhibition, 80 ng/mL EGF, 3 days treatment, read-out: EGFR WT IC50
Chain of BaF3_EGFRWT cells (P00533 whole entry, change not shown): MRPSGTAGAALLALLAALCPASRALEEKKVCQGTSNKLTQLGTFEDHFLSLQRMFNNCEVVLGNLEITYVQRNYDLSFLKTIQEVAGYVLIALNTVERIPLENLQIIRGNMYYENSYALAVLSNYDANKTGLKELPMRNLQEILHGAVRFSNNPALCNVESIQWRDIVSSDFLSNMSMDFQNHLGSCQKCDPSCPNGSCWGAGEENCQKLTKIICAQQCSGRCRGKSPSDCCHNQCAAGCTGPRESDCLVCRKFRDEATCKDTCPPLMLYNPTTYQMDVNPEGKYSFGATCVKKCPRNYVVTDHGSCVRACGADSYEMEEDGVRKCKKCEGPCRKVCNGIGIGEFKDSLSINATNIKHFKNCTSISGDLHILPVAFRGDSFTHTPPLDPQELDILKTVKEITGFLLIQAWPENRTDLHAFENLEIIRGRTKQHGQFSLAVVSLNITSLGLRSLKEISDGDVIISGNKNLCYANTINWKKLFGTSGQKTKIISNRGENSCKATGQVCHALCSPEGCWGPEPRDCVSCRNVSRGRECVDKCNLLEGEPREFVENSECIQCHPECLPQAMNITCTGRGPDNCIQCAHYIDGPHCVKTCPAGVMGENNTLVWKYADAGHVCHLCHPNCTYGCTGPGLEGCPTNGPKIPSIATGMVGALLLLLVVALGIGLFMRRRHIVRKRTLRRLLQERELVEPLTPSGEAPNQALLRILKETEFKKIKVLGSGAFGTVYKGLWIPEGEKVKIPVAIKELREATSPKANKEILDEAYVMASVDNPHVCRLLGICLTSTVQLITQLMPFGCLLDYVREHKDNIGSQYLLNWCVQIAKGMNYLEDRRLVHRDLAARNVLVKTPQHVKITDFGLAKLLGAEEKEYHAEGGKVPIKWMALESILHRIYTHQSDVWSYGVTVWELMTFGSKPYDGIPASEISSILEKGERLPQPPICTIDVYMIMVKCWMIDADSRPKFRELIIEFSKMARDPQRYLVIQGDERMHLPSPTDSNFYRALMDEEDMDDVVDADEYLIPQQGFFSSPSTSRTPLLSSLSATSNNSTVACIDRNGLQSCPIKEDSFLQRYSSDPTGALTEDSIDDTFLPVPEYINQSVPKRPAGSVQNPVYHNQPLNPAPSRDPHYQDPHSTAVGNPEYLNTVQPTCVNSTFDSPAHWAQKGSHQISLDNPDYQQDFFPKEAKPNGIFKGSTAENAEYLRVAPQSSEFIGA

Chain of BaF3_HER2WT cells (P04626 whole entry, change not shown): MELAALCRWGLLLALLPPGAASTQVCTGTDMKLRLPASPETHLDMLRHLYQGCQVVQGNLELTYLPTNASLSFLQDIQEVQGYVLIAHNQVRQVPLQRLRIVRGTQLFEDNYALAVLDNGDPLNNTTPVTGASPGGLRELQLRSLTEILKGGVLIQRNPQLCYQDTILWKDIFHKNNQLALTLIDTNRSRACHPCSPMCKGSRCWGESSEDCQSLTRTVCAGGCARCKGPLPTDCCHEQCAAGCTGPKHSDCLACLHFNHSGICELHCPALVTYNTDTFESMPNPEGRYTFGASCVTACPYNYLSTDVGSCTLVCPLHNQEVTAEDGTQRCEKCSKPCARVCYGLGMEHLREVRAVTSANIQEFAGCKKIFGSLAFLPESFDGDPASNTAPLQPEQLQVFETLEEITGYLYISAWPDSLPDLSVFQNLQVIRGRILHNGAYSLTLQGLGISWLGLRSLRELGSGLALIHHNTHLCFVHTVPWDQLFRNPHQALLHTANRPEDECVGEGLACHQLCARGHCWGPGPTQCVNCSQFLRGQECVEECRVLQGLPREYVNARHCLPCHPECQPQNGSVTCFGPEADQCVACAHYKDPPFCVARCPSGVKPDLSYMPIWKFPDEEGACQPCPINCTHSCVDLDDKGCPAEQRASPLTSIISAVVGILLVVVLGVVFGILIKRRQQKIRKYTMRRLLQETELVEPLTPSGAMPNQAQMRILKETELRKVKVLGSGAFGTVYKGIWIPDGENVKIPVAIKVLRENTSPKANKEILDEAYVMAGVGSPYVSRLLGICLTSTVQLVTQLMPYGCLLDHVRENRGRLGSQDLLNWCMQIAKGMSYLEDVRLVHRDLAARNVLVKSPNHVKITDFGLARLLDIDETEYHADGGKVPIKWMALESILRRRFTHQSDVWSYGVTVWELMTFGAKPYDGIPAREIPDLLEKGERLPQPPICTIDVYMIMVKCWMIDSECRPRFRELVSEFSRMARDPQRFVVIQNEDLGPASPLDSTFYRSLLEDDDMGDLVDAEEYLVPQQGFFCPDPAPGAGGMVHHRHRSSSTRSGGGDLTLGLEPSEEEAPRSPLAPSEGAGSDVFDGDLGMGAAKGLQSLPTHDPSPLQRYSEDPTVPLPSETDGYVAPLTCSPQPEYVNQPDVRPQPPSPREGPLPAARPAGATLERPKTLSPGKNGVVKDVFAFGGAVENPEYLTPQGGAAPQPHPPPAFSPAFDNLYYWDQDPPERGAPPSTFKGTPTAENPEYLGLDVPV
Chain of BaF3_HER2YVMA cells (P04626 with tags, fused parts or gaps DUP772-775): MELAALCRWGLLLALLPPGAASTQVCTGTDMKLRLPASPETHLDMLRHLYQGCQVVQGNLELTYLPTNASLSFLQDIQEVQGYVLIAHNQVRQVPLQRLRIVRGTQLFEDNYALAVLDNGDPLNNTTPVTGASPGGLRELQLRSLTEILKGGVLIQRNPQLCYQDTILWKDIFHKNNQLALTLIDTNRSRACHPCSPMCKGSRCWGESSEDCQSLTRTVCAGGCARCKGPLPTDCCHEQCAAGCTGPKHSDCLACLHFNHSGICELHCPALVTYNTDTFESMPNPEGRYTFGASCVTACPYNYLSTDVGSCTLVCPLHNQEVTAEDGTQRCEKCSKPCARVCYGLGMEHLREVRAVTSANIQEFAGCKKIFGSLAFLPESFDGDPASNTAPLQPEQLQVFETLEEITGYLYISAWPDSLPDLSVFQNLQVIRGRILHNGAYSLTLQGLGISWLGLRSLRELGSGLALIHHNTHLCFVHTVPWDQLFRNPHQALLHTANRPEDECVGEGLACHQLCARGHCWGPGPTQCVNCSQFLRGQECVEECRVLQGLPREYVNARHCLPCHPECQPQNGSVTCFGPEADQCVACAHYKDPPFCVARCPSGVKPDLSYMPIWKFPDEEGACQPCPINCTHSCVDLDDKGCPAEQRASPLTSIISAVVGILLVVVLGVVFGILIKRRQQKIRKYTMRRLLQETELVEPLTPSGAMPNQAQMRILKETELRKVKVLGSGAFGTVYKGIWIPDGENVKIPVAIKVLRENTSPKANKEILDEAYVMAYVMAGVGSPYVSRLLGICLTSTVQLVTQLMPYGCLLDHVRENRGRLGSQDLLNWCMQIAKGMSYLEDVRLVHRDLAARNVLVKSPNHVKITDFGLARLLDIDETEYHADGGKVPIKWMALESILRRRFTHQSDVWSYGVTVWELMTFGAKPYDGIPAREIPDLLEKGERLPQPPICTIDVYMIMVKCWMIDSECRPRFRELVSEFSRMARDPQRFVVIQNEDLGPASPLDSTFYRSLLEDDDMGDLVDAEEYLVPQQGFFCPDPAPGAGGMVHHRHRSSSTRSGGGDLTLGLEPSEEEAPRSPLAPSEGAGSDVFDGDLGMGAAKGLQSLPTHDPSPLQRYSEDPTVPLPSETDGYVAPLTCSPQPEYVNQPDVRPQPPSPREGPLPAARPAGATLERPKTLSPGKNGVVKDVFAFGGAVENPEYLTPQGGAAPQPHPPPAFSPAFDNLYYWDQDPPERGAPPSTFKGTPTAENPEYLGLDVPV

C=C(CN(C)C)C(=O)N1C2CCC1CC(c1ccn3ncnc(Nc4ccc(Oc5ccn6ncnc6c5)c(C)c4)c13)C2 (single isomer, unassigned) [Examples 126 and 127, first eluting isomer, 1-(3-(4-((4-([1,2,4]triazolo[1,5-a]pyridin-7-yloxy)-3-methylphenyl)amino)pyrrolo[2,1-f][1,2,4]triazin-5-yl)-8-azabicyclo[3.2.1]octan-8-yl)-2-((dimethylamino)methyl)prop-2-en-1-one]
GI50 (BaF3_HER2YVMA cells): 200 to 500 nM | GI50 (BaF3_HER2WT cells): < 200 nM | GI50 (BaF3_EGFRWT cells): 1500 to 5000 nM

C=C(CN(C)C)C(=O)N1C2CCC1CC(c1ccn3ncnc(Nc4ccc(Oc5ccn6ncnc6c5)c(C)c4)c13)C2 (single isomer, unassigned) [Examples 126 and 127, second eluting isomer, 1-(3-(4-((4-([1,2,4]triazolo[1,5-a]pyridin-7-yloxy)-3-methylphenyl)amino)pyrrolo[2,1-f][1,2,4]triazin-5-yl)-8-azabicyclo[3.2.1]octan-8-yl)-2-((dimethylamino)methyl)prop-2-en-1-one]
GI50 (BaF3_HER2YVMA cells): 500 to 1500 nM | GI50 (BaF3_HER2WT cells): 200 to 500 nM | GI50 (BaF3_EGFRWT cells): 1500 to 5000 nM

C=C(CN(C)C)C(=O)N1CC2CCC1CC2c1ccn2ncnc(Nc3ccc(Oc4ccn5ncnc5c4)c(C)c3)c12 (single isomer, unassigned) [Examples 135 and 136, first eluting isomer, 1-(5-(4-((4-([1,2,4]triazolo[1,5-a]pyridin-7-yloxy)-3-methylphenyl)amino)pyrrolo[2,1-f][1,2,4]triazin-5-yl)-2-azabicyclo[2.2.2]octan-2-yl)-2-((dimethylamino)methyl)prop-2-en-1-one]
GI50 (BaF3_HER2YVMA cells): < 200 nM | GI50 (BaF3_HER2WT cells): < 200 nM | GI50 (BaF3_EGFRWT cells): 1500 to 5000 nM

C=C(CN(C)C)C(=O)N1CC2CCC1CC2c1ccn2ncnc(Nc3ccc(Oc4ccn5ncnc5c4)c(C)c3)c12 (single isomer, unassigned) [Examples 135 and 136, second eluting isomer, 1-(5-(4-((4-([1,2,4]triazolo[1,5-a]pyridin-7-yloxy)-3-methylphenyl)amino)pyrrolo[2,1-f][1,2,4]triazin-5-yl)-2-azabicyclo[2.2.2]octan-2-yl)-2-((dimethylamino)methyl)prop-2-en-1-one]
GI50 (BaF3_HER2YVMA cells): 200 to 500 nM | GI50 (BaF3_HER2WT cells): < 200 nM | GI50 (BaF3_EGFRWT cells): < 200 nM

Cc1cc(Nc2ncnn3ccc(C4CC5CCC4CN5C(=O)/C=C/CN(C)C)c23)ccc1Oc1ccn2ncnc2c1 (single isomer, unassigned) [Examples 137 and 138, second eluting isomer, (E)-1-(5-(4-((4-([1,2,4]triazolo[1,5-a]pyridin-7-yloxy)-3-methylphenyl)amino)pyrrolo[2,1-f][1,2,4]triazin-5-yl)-2-azabicyclo[2.2.2]octan-2-yl)-4-(dimethylamino)but-2-en-1-one]
GI50 (BaF3_HER2YVMA cells): 1500 to 5000 nM | GI50 (BaF3_HER2WT cells): 500 to 1500 nM | GI50 (BaF3_EGFRWT cells): 1500 to 5000 nM

C=CC(=O)N1CC2CCC1CC2c1ccn2ncnc(Nc3ccc(Oc4ccn5ncnc5c4)c(C)c3)c12 (single isomer, unassigned) [Examples 139 and 140, first eluting isomer, 1-(5-(4-((4-([1,2,4]triazolo[1,5-a]pyridin-7-yloxy)-3-methylphenyl)amino)pyrrolo[2,1-f][1,2,4]triazin-5-yl)-2-azabicyclo[2.2.2]octan-2-yl)prop-2-en-1-one]
GI50 (BaF3_HER2YVMA cells): < 200 nM | GI50 (BaF3_HER2WT cells): < 200 nM | GI50 (BaF3_EGFRWT cells): 1500 to 5000 nM

C=CC(=O)N1CC2CCC1CC2c1ccn2ncnc(Nc3ccc(Oc4ccn5ncnc5c4)c(C)c3)c12 (single isomer, unassigned) [Examples 139 and 140, second eluting isomer, 1-(5-(4-((4-([1,2,4]triazolo[1,5-a]pyridin-7-yloxy)-3-methylphenyl)amino)pyrrolo[2,1-f][1,2,4]triazin-5-yl)-2-azabicyclo[2.2.2]octan-2-yl)prop-2-en-1-one]
GI50 (BaF3_HER2YVMA cells): 1500 to 5000 nM | GI50 (BaF3_HER2WT cells): 500 to 1500 nM | GI50 (BaF3_EGFRWT cells): 1500 to 5000 nM

C=C(CN(C)C)C(=O)N1CCCC(c2ccn3ncnc(Nc4ccc(Oc5ccn6ncnc6c5)c(C)c4)c23)CC1 (single isomer, unassigned) [Examples 143 and 144, first eluting isomer, 1-(4-(4-((4-([1,2,4]triazolo[1,5-a]pyridin-7-yloxy)-3-methylphenyl)amino)pyrrolo[2,1-f][1,2,4]triazin-5-yl)azepan-1-yl)-2-((dimethylamino)methyl)prop-2-en-1-one]
GI50 (BaF3_HER2YVMA cells): 500 to 1500 nM | GI50 (BaF3_HER2WT cells): < 200 nM | GI50 (BaF3_EGFRWT cells): 1500 to 5000 nM

C=C(CN(C)C)C(=O)N1CCCC(c2ccn3ncnc(Nc4ccc(Oc5ccn6ncnc6c5)c(C)c4)c23)CC1 (single isomer, unassigned) [Examples 143 and 144, second eluting isomer, 1-(4-(4-((4-([1,2,4]triazolo[1,5-a]pyridin-7-yloxy)-3-methylphenyl)amino)pyrrolo[2,1-f][1,2,4]triazin-5-yl)azepan-1-yl)-2-((dimethylamino)methyl)prop-2-en-1-one]
GI50 (BaF3_HER2YVMA cells): < 200 nM | GI50 (BaF3_HER2WT cells): < 200 nM | GI50 (BaF3_EGFRWT cells): 1500 to 5000 nM

Cc1cc(Nc2ncnn3ccc(C4CCCN(C(=O)C(F)Cl)CC4)c23)ccc1Oc1ccn2ncnc2c1 (single isomer, unassigned) [Examples 145, 146, 147 and 148, first eluting isomer, 1-(4-(4-((4-([1,2,4]triazolo[1,5-a]pyridin-7-yloxy)-3-methylphenyl)amino)pyrrolo[2,1-f][1,2,4]triazin-5-yl)azepan-1-yl)-2-chloro-2-fluoroethan-1-one]
GI50 (BaF3_HER2YVMA cells): 200 to 500 nM | GI50 (BaF3_HER2WT cells): < 200 nM | GI50 (BaF3_EGFRWT cells): 1500 to 5000 nM

Cc1cc(Nc2ncnn3ccc([C@@H]4CCCN(C(=O)[C@H](F)Cl)CC4)c23)ccc1Oc1ccn2ncnc2c1 (single isomer, unassigned) [Examples 145, 146, 147 and 148, fourth eluting isomer]
GI50 (BaF3_HER2YVMA cells): 500 to 1500 nM | GI50 (BaF3_HER2WT cells): 200 to 500 nM | GI50 (BaF3_EGFRWT cells): 1500 to 5000 nM

Cc1cc(Nc2ncnn3ccc(C4CCCN(C(=O)C(F)Cl)CC4)c23)ccc1Oc1ccn2ncnc2c1 (single isomer, unassigned) [Examples 145, 146, 147 and 148, second eluting isomer, 1-(4-(4-((4-([1,2,4]triazolo[1,5-a]pyridin-7-yloxy)-3-methylphenyl)amino)pyrrolo[2,1-f][1,2,4]triazin-5-yl)azepan-1-yl)-2-chloro-2-fluoroethan-1-one]
GI50 (BaF3_HER2YVMA cells): < 200 nM | GI50 (BaF3_HER2WT cells): < 200 nM | GI50 (BaF3_EGFRWT cells): 500 to 1500 nM

Cc1cc(Nc2ncnn3ccc(C4CCCN(C(=O)C(F)Cl)CC4)c23)ccc1Oc1ccn2ncnc2c1 (single isomer, unassigned) [Examples 145, 146, 147 and 148, third eluting isomer, 1-(4-(4-((4-([1,2,4]triazolo[1,5-a]pyridin-7-yloxy)-3-methylphenyl)amino)pyrrolo[2,1-f][1,2,4]triazin-5-yl)azepan-1-yl)-2-chloro-2-fluoroethan-1-one]
GI50 (BaF3_HER2YVMA cells): 500 to 1500 nM | GI50 (BaF3_HER2WT cells): 200 to 500 nM | GI50 (BaF3_EGFRWT cells): 1500 to 5000 nM

Cc1cc(Nc2ncnn3ccc(C4CN(C(=O)/C=C/C5CCCN5C)C4)c23)ccc1Oc1ccn2ncnc2c1 (single isomer, unassigned) [Examples 171 and 172, second eluting isomer, (E)-1-(3-(4-((4-([1,2,4]triazolo[1,5-a]pyridin-7-yloxy)-3-methylphenyl)amino)pyrrolo[2,1-f][1,2,4]triazin-5-yl)azetidin-1-yl)-3-(1-methylpyrrolidin-2-yl)prop-2-en-1-one]
GI50 (BaF3_HER2YVMA cells): < 200 nM | GI50 (BaF3_HER2WT cells): < 200 nM | GI50 (BaF3_EGFRWT cells): 1500 to 5000 nM

From US20240132521A1, “COMPOUNDS AND METHODS FOR MODULATING HER2” (Iambic Therapeutics, Inc., priority 2022, published 2024)
